Data from US20080234297A1, “HSP90 Inhibitors Containing a Zinc Binding Moiety” (priority 2007, published 2008).
pIC50: −log10 of the molar value.

How the values were obtained:
[1] = target: HSP90; experiment: Hsp90 chaperone assay (refolding of heat-denatured luciferase); format: biochemical; settings: luminescence readout, graded IC50
Experimental: (a) An In Vitro Assay which Determines the Ability of a Test Compound to Inhibit Hsp90 Chaperone Activity.
The Hsp90 chaperone assay was performed to measure the ability of HSP90 protein to refold the heat-denatured luciferase protein. HSP90 was first incubated with different concentrations of test compounds in denaturation buffer (25 mM Tris, pH7.5, 8 mM MgSO4, 0.01% bovine gamma globulin and 10% glycerol) at room temperature for 30 min. Luciferase protein was added to denaturation mix and incubated at 50° C. for 8 min. The final concentration of HSP90 and luciferase in denaturation mixture were 0.375 μM and 0.125 μM respectively. A 5 μl sample of the denatured mix was diluted into 25 μl of renaturation buffer (25 mM Tris, pH7.5, 8 mM MgSO4, 0.01% bovine gamma globulin and 10% glycerol, 0.5 mM ATP, 2 mM DTT, 5 mM KCl, 0.3 μM HSP70 and 0.15 μM HSP40). The renaturation reaction was incubated at room temperature for 150 min, followed by dilution of 10 μl of the renatured sample into 90 μl of luciferin reagent (Luclite, PerkinElmer Life Science). The mixture was incubated at dark for 5 min before reading the luminescence signal on a TopCount plate reader (PerkinElmer Life Science).
(§1) The following TABLE B lists compounds representative of the invention and their activity in HDAC and HSP90 assays. In these assays, the following grading was used: I≧10 μM, 10 μM>II>1 μM, 1 μM>III>0.1 μM, and IV≦0.1 μM for IC50.

[2] = system: HDAC (HeLa nuclear extract); experiment: HDAC fluorimetric assay kit (AK-500, Biomol), inhibition of HDAC enzymatic activity; format: biochemical; settings: Fluor de Lys substrate, graded IC50
Experimental: (b) An In Vitro Assay which Determines the Ability of a Test Compound to Inhibit HDAC Enzymatic Activity.
HDAC inhibitors were screened using an HDAC fluorimetric assay kit (AK-500, Biomol, Plymouth Meeting, Pa.). Test compounds were dissolved in dimethylsulphoxide (DMSO) to give a 20 mM working stock concentration. Fluorescence was measured on a WALLAC Victor 2 plate reader and reported as relative fluorescence units (RFU). Data were plotted using GraphPad Prism (v4.0a) and IC50's calculated using a sigmoidal dose response curve fitting algorithm. Each assay was setup as follows: Defrosted all kit components and kept on ice until use. Diluted HeLa nuclear extract 1:29 in Assay Buffer (50 mM Tris/Cl, pH 8.0, 137 mM NaCl, 2.7 mM KCl, 1 mM MgCl2). Prepared dilutions of Trichostatin A (TSA, positive control) and tested compounds in assay buffer (5× of final concentration). Diluted Fluor de Lys™ Substrate in assay buffer to 100 uM (50 fold=2× final). Diluted Fluor de Lys™ developer concentrate 20-fold (e.g. 50 μl plus 950 μl Assay Buffer) in cold assay buffer. Second, diluted the 0.2 mM Trichostatin A 100-fold in the 1× Developer (e.g. 10 μl in 1 ml; final Trichostatin A concentration in the 1× Developer=2 μM; final concentration after addition to HDAC/Substrate reaction=1 μM). Added Assay buffer, diluted trichostatin A or test inhibitor to appropriate wells of the microtiter plate. Added diluted HeLa extract or other HDAC sample to all wells except for negative controls. Allowed diluted Fluor de Lys™ Substrate and the samples in the microtiter plate to equilibrate to assay temperature (e.g. 25 or 37° C. Initiated HDAC reactions by adding diluted substrate (25 μl) to each well and mixing thoroughly. Allowed HDAC reactions to proceed for 1 hour and then stopped them by addition of Fluor de Lys™ Developer ([…]). Incubated plate at room temperature (25° C.) for 10-15 min. Read samples in a microtiter-plate reading fluorimeter capable of excitation at a wavelength in the range 350-380 nm and detection of emitted light in the range 440-460 nm.
as §1

melting point | pIC50 [1] | pIC50 [2] | Structure (SMILES)
 | ≤ 5.00 | ≤ 5.00 | Nc1ncnc2c1nc(Sc1cc3c(cc1Br)OCO3)n2CCOCCCC(=O)NO [Compound 27, 4-(2-(6-amino-8-(6-bromobenzo[d][1,3]dioxol-5-ylthio)-9H-purin-9-yl)ethoxy)-N-hydroxybutanamide]
 | ≤ 5.00 | 5.00 to 6.00 | Nc1ncnc2c1nc(Sc1cc3c(cc1Br)OCO3)n2CCOCCCCC(=O)NO [Compound 28, 5-(2-(6-amino-8-(6-bromobenzo[d][1,3]dioxol-5-ylthio)-9H-purin-9-yl)ethoxy)-N-hydroxypentanamide]
 | ≤ 5.00 | 5.00 to 6.00 | Nc1ncnc2c1nc(Sc1cc3c(cc1Br)OCO3)n2CCOCCCCCC(=O)NO [Compound 29, 6-(2-(6-amino-8-(6-bromobenzo[d][1,3]dioxol-5-ylthio)-9H-purin-9-yl)ethoxy)-N-hydroxyhexanamide]
 | ≤ 5.00 | ≥ 7.00 | Nc1ncnc2c1nc(Sc1cc3c(cc1Br)OCO3)n2CCOCCCCCCC(=O)NO [Compound 30, 7-(2-(6-amino-8-(6-bromobenzo[d][1,3]dioxol-5-ylthio)-9H-purin-9-yl)ethoxy)-N-hydroxyheptanamide]
 | 5.00 to 6.00 | ≥ 7.00 | Nc1ncnc2c1nc(Sc1cc3c(cc1Cl)OCO3)n2CCCCCCC(=O)NO [Compound 31, 7-(6-amino-8-(6-chlorobenzo[d][1,3]dioxol-5-ylthio)-9H-purin-9-yl)-N-hydroxyheptanamide]
 | ≥ 7.00 | ≥ 7.00 | Nc1ncnc2c1nc(Sc1cc3c(cc1I)OCO3)n2CCCCCCC(=O)NO [Compound 32, 7-(6-amino-8-(6-iodobenzo[d][1,3]dioxol-5-ylthio)-9H-purin-9-yl)-N-hydroxyheptanamide]
 | 5.00 to 6.00 | ≥ 7.00 | Nc1nccc2c1nc(Sc1cc3c(cc1Cl)OCO3)n2CCCCCCC(=O)NO [Compound 34, 7-(4-amino-2-(6-chlorobenzo[d][1,3]dioxol-5-ylthio)-1H-imidazo[4,5-c]pyridin-1-yl)-N-hydroxyheptanamide]
 | 5.00 to 6.00 | ≥ 7.00 | Nc1nccc2c1nc(Sc1cc3c(cc1Br)OCO3)n2CCCCCCC(=O)NO [Compound 35, 7-(4-amino-2-(6-bromobenzo[d][1,3]dioxol-5-ylthio)-1H-imidazo[4,5-c]pyridin-1-yl)-N-hydroxyheptanamide]
 | 6.00 to 7.00 | ≥ 7.00 | Nc1nccc2c1nc(Sc1cc3c(cc1I)OCO3)n2CCCCCCC(=O)NO [Compound 36, 7-(4-amino-2-(6-iodobenzo[d][1,3]dioxol-5-ylthio)-1H-imidazo[4,5-c]pyridin-1-yl)-N-hydroxyheptanamide]
 | 6.00 to 7.00 | 6.00 to 7.00 | Nc1ncnc2c1nc(Sc1cc3c(cc1I)OCO3)n2CCNCCCCCC(=O)NO [Compound 38, 6-(2-(6-amino-8-(6-iodobenzo[d][1,3]dioxol-5-ylthio)-9H-purin-9-yl)ethylamino)-N-hydroxyhexanamide]
 | 6.00 to 7.00 | ≥ 7.00 | Nc1ncnc2c1nc(Sc1cc3c(cc1I)OCO3)n2CCNCCCCCCC(=O)NO [Compound 39, 7-(2-(6-amino-8-(6-iodobenzo[d][1,3]dioxol-5-ylthio)-9H-purin-9-yl)ethylamino)-N-hydroxyheptanamide]
 | ≤ 5.00 | ≤ 5.00 | Nc1ncnc2c1nc(Sc1cc3c(cc1Br)OCO3)n2CCOCC(=O)NO [Compound 40]
 |  | ≥ 7.00 | Nc1ncnc2c1nc(Sc1cc3c(cc1Br)OCO3)n2CCNCCCCCCCC(=O)NO [Compound 41, 8-(2-(6-amino-8-(6-bromobenzo[d][1,3]dioxol-5-ylthio)-9H-purin-9-yl)ethylamino)-N-hydroxyoctanamide]

Further lines, the compound ahead of its results:

Structure (SMILES) | melting point | pIC50 [1] | pIC50 [2]
Nc1ncnc2c1nc(Sc1cc3c(cc1Br)OCO3)n2CC(=O)NO [Compound 1, 2-(6-amino-8-(6-bromobenzo[d][1,3]dioxol-5-ylthio)-9H-purin-9-yl)-N-hydroxyacetamide] | 230 °C (dec.) |  | 
Nc1ncnc2c1nc(Sc1cc3c(cc1Br)OCO3)n2CCCCCC(=O)NO [Compound 5, 6-(6-amino-8-(6-bromobenzo[d][1,3]dioxol-5-ylthio)-9H-purin-9-yl)-N-hydroxyhexanamide] |  | 6.00 to 7.00 | 6.00 to 7.00
Nc1ncnc2c1nc(Sc1cc3c(cc1Br)OCO3)n2CCCCCCC(=O)NO [Compound 6, 7-(6-amino-8-(6-bromobenzo[d][1,3]dioxol-5-ylthio)-9H-purin-9-yl)-N-hydroxyheptanamide] |  | 6.00 to 7.00 | ≥ 7.00
COc1ccc(I)c(Sc2nc3c(N)ncnc3n2CCCCCCC(=O)NO)c1 [Compound 12, 7-(6-amino-8-(2-iodo-5-methoxyphenylthio)-9H-purin-9-yl)-N-hydroxyheptanamide] |  |  | ≥ 7.00
C#CCCCn1c(Sc2cccc(C(=O)NO)c2)nc2c(N)ncnc21 [Compound 13] |  | ≤ 5.00 | ≤ 5.00
C#CCCCn1c(Sc2cccc(OCC(=O)NO)c2)nc2c(N)ncnc21 [Compound 14, 2-(3-(6-amino-9-(pent-4-ynyl)-9H-purin-8-ylthio)phenoxy)-N-hydroxyacetamide] |  |  | 6.00 to 7.00
C#CCCCn1c(Sc2cccc(OCCCC(=O)NO)c2)nc2c(N)ncnc21 [Compound 16, 4-(3-(6-amino-9-(pent-4-ynyl)-9H-purin-8-ylthio)phenoxy)-N-hydroxybutanamide] |  | ≤ 5.00 | ≥ 7.00
C#CCCCn1c(Sc2cccc(OCCCCCC(=O)NO)c2)nc2c(N)ncnc21 [Compound 18, 6-(3-(6-amino-9-(pent-4-ynyl)-9H-purin-8-ylthio)phenoxy)-N-hydroxyhexanamide] |  | ≤ 5.00 | ≥ 7.00
Nc1ncnc2c1nc(Sc1cc3c(cc1Br)OCO3)n2CCNCCC(=O)NO [Compound 20, 3-(2-(6-amino-8-(6-bromobenzo[d][1,3]dioxol-5-ylthio)-9H-purin-9-yl)ethylamino)-N-hydroxypropanamide] |  | 6.00 to 7.00 | ≤ 5.00
Nc1ncnc2c1nc(Sc1cc3c(cc1Br)OCO3)n2CCNCCCCCC(=O)NO [Compound 23, 6-(2-(6-amino-8-(6-bromobenzo[d][1,3]dioxol-5-ylthio)-9H-purin-9-yl)ethylamino)-N-hydroxyhexanamide] |  | 6.00 to 7.00 | ≥ 7.00
Nc1ncnc2c1nc(Sc1cc3c(cc1Br)OCO3)n2CCNCCCCCCC(=O)NO [Compound 24, 7-(2-(6-amino-8-(6-bromobenzo[d][1,3]dioxol-5-ylthio)-9H-purin-9-yl)ethylamino)-N-hydroxyheptanamide] |  | 6.00 to 7.00 | ≥ 7.00
Nc1ncnc2c1nc(Sc1cc3c(cc1Br)OCO3)n2CCNCC(=O)NO [Compound 33] |  | 6.00 to 7.00 | ≤ 5.00
Nc1ncnc2c1nc(Sc1cc3c(cc1I)OCO3)n2CCNCC(=O)NO [Compound 37] |  | 6.00 to 7.00 | ≤ 5.00
